Assay results from PubChem BioAssay (NCI).
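Dose response: 5 concentrations. Exposure: 48 h. Format: 96-well plates. Endpoint: linear interpolation; highest concentration if not reached. TGI is the concentration that stops growth completely.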

Legend:
Assay in all cases: NCI anticancer screen, dose series, 48 h
[1] = system: BT-549 breast
[2] = system: CAKI-1 renal
[3] = system: HOP-62 NSCLC
[4] = system: HOP-92 NSCLC
[5] = system: HS 578T breast
[6] = system: HT29 colon
[7] = system: KM12 colon
[8] = system: MDA-MB-435
[9] = system: NCI-H23 lung
[10] = system: NCI-H460 lung
[11] = system: NCI/ADR-RES ovarian
[12] = system: OVCAR-5 ovarian
[13] = system: OVCAR-8 ovarian
[14] = system: SF-268 CNS
[15] = system: SF-539 CNS
[16] = system: SK-OV-3 ovarian
[17] = system: SNB-19 CNS
[18] = system: HCC-2998 colon

| Structure (SMILES) | TGI [1] [µM] | TGI [2] [µM] | TGI [3] [µM] | TGI [4] [µM] | TGI [5] [µM] | TGI [6] [µM] | TGI [7] [µM] | TGI [8] [µM] | TGI [9] [µM] | TGI [10] [µM] | TGI [11] [µM] | TGI [12] [µM] | TGI [13] [µM] | TGI [14] [µM] | TGI [15] [µM] | TGI [16] [µM] | TGI [17] [µM] | TGI [18] [µM] |
| --- | --- | --- | --- | --- | --- | --- | --- | --- | --- | --- | --- | --- | --- | --- | --- | --- | --- | --- |
| Cc1c(C=C(C#N)C#N)c(=O)n(C)c(=O)n1C | > 100 | > 100 | > 100 | > 100 | > 100 | > 100 | > 100 | > 100 | > 100 | > 100 | > 100 | > 100 | > 100 | > 100 | > 100 | > 100 | > 100 |  |
| COc1ccc(-c2cc(-c3ccccc3)nc(N)n2)c(O)c1 | > 29.3 |  | > 100 | > 100 | > 100 | > 100 | > 100 | > 100 | > 100 | > 100 | > 100 | > 100 | > 100 | > 100 | > 100 | > 100 | > 100 | > 100 |
| CCN(CC)c1ccc2cc(-c3csc(-c4ccc(N(C)C)cc4)n3)c(=O)oc2c1 | > 100 | > 100 | > 100 | > 100 | > 100 | > 100 | > 100 | > 100 |  | > 100 | > 100 | > 100 | > 100 | > 100 | > 100 | > 100 | > 100 | > 100 |
| COC(=O)/C=C/N1CC1 | > 10 | > 10 | > 10 |  | > 10 | > 10 | > 10 | > 10 | > 10 | > 10 | > 10 | > 10 | > 10 | > 10 | > 10 | > 10 | > 10 | > 10 |
| CC(C)(C)OC(=O)CC(NC(=O)OC(C)(C)C)C(=O)Oc1ccc([N+](=O)[O-])cc1 (configuration not stated) | > 100 | > 100 | > 100 | > 100 | > 100 | > 100 | > 100 | > 100 | > 100 | > 100 | > 100 | > 100 | > 100 | > 100 | > 100 | > 100 | > 100 |  |
| NNC(=O)CSc1nnc(CCCCCCCCc2nnc(SCC(=O)NN)o2)o1 | > 100 | > 100 | > 100 | > 100 | > 100 | > 100 | > 100 | > 100 | > 100 | > 100 | > 100 | > 100 | > 100 | > 100 |  | > 100 | > 100 | > 100 |
| N#Cc1c(Nc2ccccc2)[n+]([O-])c2ccc(Cl)cc2[n+]1[O-] | 14.9 | > 100 | > 69.9 | 4.22 | > 72.8 | 8.22 | > 100 | > 100 | 17.4 |  | 8.15 | > 100 | 10.7 | > 48.6 | 21.4 | > 100 | > 77.4 | 15.2 |
| COc1cc(OC)cc(Oc2nc3c(N)cc(C(F)(F)F)cc3nc2-c2ccccc2)c1 | > 100 | > 100 | > 100 | > 100 | > 100 | > 100 | 50.3 | 66.5 | > 100 | > 100 | > 100 |  | > 100 | > 100 | > 100 | > 100 | > 100 | > 100 |
| NC(=O)N/N=C/c1ccccc1O | > 100 | > 100 | > 100 | > 100 | > 100 | > 100 | > 100 | > 100 | > 100 | > 100 | > 100 |  | > 100 | > 100 | > 100 | > 100 | > 100 | > 100 |
| OCC1(CNc2cc(Cl)ncn2)CCC1 | > 100 |  | > 100 | > 100 | > 100 | > 100 | > 100 | > 100 | > 100 | > 100 | > 100 | > 100 | > 100 | > 100 | > 100 |  |  |  |
| COc1cc(C2S/C(=C/c3ccccc3)C(=O)N2c2ccccn2)cc(OC)c1OC (configuration not stated) | 39 | 52.3 | 48.8 | 33.6 | > 68 | > 47 | 29.4 | 29.3 | 34 |  | 54 | 41.2 | 31.2 | 36.2 |  | > 90.6 | 46.5 | 32.8 |
| COC(=O)c1ccccc1Nc1ccccc1C(=O)OC | > 100 | > 100 | > 100 | 75.5 | 72.2 | > 100 | > 100 | > 100 | > 100 | > 100 | > 100 | > 100 | > 100 | > 100 | > 100 | > 100 | > 100 |  |
| CC1OC(n2cnc3c(N)nc(Cl)nc32)C(C)(O)C1O (configuration not stated) | > 25 | > 25 | > 25 | > 25 | > 25 | > 25 | > 25 | > 25 | > 25 |  | > 25 | > 25 | > 25 | > 25 | > 25 | > 25 | > 25 | > 25 |
| NC(N)=N/N=C/c1c(-c2ccc(Cl)cc2)nc2n1CCS2 | 28 | 28 | 27.4 | 22.6 | 58.8 | 21.1 | 24.2 | 25.6 |  | 26.9 | 32.6 | 28.3 | 29.5 | 25.3 | 25 | 27 | 32.6 | 8.39 |
| Cc1cn(C2CC(O)C(Cn3nncc3Cn3ccc(=O)[nH]c3=O)O2)c(=O)[nH]c1=O (configuration not stated) | > 100 | > 100 | > 100 | > 100 | > 100 | > 100 | > 100 | > 100 | > 100 |  | > 100 | > 100 | > 100 | > 100 | > 100 | > 100 | > 100 | > 100 |
| O[C@H]1[C@@H]2OC[C@@H](O)[C@H](OCc3ccccc3)[C@@](COCc3ccccc3)(O2)[C@@H]1OCc1ccccc1 | 32.2 | 0.0898 | 34.4 | 26.3 | 40.7 | 28.7 | 35.6 | 32.1 | 32.3 | 53.8 | 32 | 30 | 31 | 42.8 | 31 | 36.6 | 30 |  |
| Cn1c2c(c3c(=O)[nH]ncc31)CCCc1ccccc1-2 | > 100 | 69.9 | > 100 | 41.3 | > 100 | > 100 | > 100 | 50.4 | > 100 | 67.7 | > 100 | > 100 | 83.5 | 98.8 | > 100 | 64 | > 100 |  |
| CC(C)[C@H]1NC(=O)[C@H]2N=C(O[C@@H]2C)[C@@H]2CCCN2C(=O)[C@H](Cc2ccccc2)NC(=O)[C@@H]2COC(=N2)[C@@H](Cc2ccccc2)NC(=O)[C@@H]2COC1=N2 | > 100 | > 100 | > 100 |  | > 100 | > 100 | > 100 | > 100 | > 100 |  | > 100 | > 100 | > 100 | > 100 | > 100 | > 100 | > 100 | > 100 |
| CSc1nc(Cl)c2c(n1)Sc1nc3ccccc3n1N=C2 | 43.3 | 72.5 | > 100 | 45.2 | 62.1 | 53.6 | > 100 | > 100 | > 100 | > 100 | 55.1 | 97.2 | 36.4 | > 100 |  | > 100 | > 100 | 60.9 |
| O=c1c2cc([N+](=O)[O-])cnc2sn1-c1ccc(Br)cc1 | > 100 |  | > 100 | 54.7 | > 100 | 79.2 | > 100 | > 100 | > 100 | > 100 | > 100 | > 100 | > 100 | 75.1 | > 100 | 99 | > 100 | > 100 |
| O=C(O)CCCN=C(C(=NCCCC(=O)O)c1ccccc1)c1ccccc1 | > 100 |  | > 100 |  | > 100 |  | > 100 | > 100 | > 100 | > 100 | > 100 | > 100 | > 100 | > 100 |  | > 100 | > 100 | > 100 |
| O=c1cc(-c2cccc(Br)c2)[nH]c2cc3c(cc12)OCO3 | 14.4 |  | 4.8 |  | 26 | > 83.3 | 25.4 | 3.02 | 12.8 | 24.8 | 30.7 | > 100 | 17.3 | 24 | 6.58 | 17 | 10.3 | 63 |
| S=c1sscc1N1CCSc2ssc(=S)c21 | > 100 | > 100 |  | 31 | > 100 | > 100 | > 100 | > 100 | 69.8 | > 100 | > 100 | > 100 | 18.9 | > 100 | > 100 |  | 63.5 | > 100 |
| CCCNC(=O)c1cc(NC(=O)c2cc(NC(=O)CCS(=O)(=O)OC)cn2C)cn1C | 8.54 | > 75.3 | > 53.1 | 47 | > 100 | > 56.9 | > 61.5 | 68.8 | 40.7 | > 100 | > 100 | > 100 | 30.3 |  |  | 22.8 | 4.82 | > 100 |
| CC(C)C(=O)CP(=O)(O)O | > 100 | > 100 | > 100 | > 100 | > 100 | > 100 | > 100 | > 100 | > 100 | > 100 | > 100 | > 100 | > 100 | > 100 | > 100 | > 100 | > 100 |  |
| N#CCCN(CCC#N)c1ccc(/C=C2\N=C(c3ccccc3)N(c3ccccc3)C2=O)cc1 | > 100 |  | > 100 | > 100 | 87.6 | > 100 | > 100 | > 100 |  | > 100 | > 100 | > 100 | > 100 |  | > 100 | > 100 | > 100 |  |
| COc1cc(N(CCC#N)CCC#N)ccc1/C(N=Nc1cccc(C)c1)=N\NC(=O)c1ccc(C)cc1 | > 100 | > 100 | > 100 | > 100 | > 100 | > 100 | > 100 | > 100 | > 100 | > 100 | > 100 | > 100 | > 100 | > 100 |  | > 100 | > 100 | > 100 |
| C[C@]12CC[C@H]3[C@@H](CCC4=CC(=O)CC[C@@]43C)[C@@H]1CC[C@@H]2OC(=O)c1cccc2c(=O)c3ccccc3[nH]c12 | > 100 |  | > 100 | > 100 | > 100 | > 100 | > 100 | > 100 | > 100 | > 100 | > 100 | > 100 | > 100 | > 100 | > 100 | > 100 | > 100 | > 100 |
